The text below walks through data of PMC9599826, “Selecting Multitarget Peptides for Alzheimer’s Disease” (Biomolecules, 2022).

The test system of the assay is human TLR4. The experiment in a line: TLR4 activation, HEK-Blue hTLR4 SEAP reporter cells. Particulars: 24 h, SEAP production. The assay is classed as cell-based. The procedure:
The HEK-Blue hTLR4 cells were used for these experiments as previously described. Cells were cultured in complete growth medium: phenol red-free DMEM high glucose medium supplemented with 1 mM sodium pyruvate, 10% heat-inactivated FBS, 50 U/mL penicillin, 50 μg/mL streptomycin, 1X Glutamax, 100 μg/mL Normocin, and 1X HEK-Blue Selection. All stimulation assays were performed on cells that were passaged 3 to 15 times. Cells were carefully rinsed once with ice-cold PBS to remove residual FBS. Then, 2 mL of pre-warmed PBS was added, and dishes were incubated at 37 °C for 5 min to promote cell detachment. Cells were fully detached from plates with gentle tapping, collected, and centrifuged at 52× g for 5 min. […] In another set of experiments, we determined the effects of peptide candidates on the activation of hTLR4 by S100A9. […] Secreted alkaline phosphatase (SEAP) production was measured in each challenged well by transferring 20 μL of medium to a fresh 96-well plate containing 200 μL of Quanti-Blue detection medium. […] The Quanti-Blue plate was developed at 37 °C, 5% CO2, for 3 h followed by OD recordings at 630 nm using the Synergy2 microplate reader and Gen5 software. […]
Figure 6 TLR4 activation by S100A9 and effects of peptide candidates. (A) SEAP production was measured in cell medium following 24 h incubation with indicated concentrations of ligands. […]

Turning to “S100A9: Recombinant human calcium binding protein S100A9 (C-terminus 8-His tag); known agonist of TLR4, positive control”, the “concentration giving maximum receptor stimulation” value turned out to be 50 nM. Besides, the EC50 (read-out: half maximal effective concentration (EC50) for TLR4 activation) was determined as 0.7 nM.
